Key:
[1] = Toxicity (general statement, no method described); settings: no data or method given
tuberculosis = settings: according to Ind. J. Med. Res. 40 (1952), p. 4-5, and Ind. J. Pharm. 13 (1951), p. 3-5; cited from earlier work

For `CC(=O)Nc1ccc(C(=O)O)c(O)c1` [Ac-PAS, N-acetyl-p-aminosalicylic acid], the toxicity [1] was “remarkably low”.

For `Nc1ccc(C(=O)O)c(O)c1` [PAS, 4-aminosalicylic acid, reference compound], the toxicity [1] was “remarkably low”.

For `O=C(O)c1ccc(N=Nc2ccc(C(=O)O)c(O)c2)cc1O` [4,4'-azo-bis-salicylic acid], the activity against tuberculosis (tuberculosis) is given as “inactive” and the toxicity [1] is given as “remarkably low”.
